Counter-ions that a name gives are not always drawn.
biological target: T1, Microsomal triglyceride transfer protein (MTP) from human small intestine microsome (Homo sapiens, UniProt P55157); assay: Inhibition test of interliposomal triglyceride (TG) transfer activity by MTP; type: biochemical; conditions: purified MTP from human small intestine microsome, 37° C., 1.5 hours
T1 construct: Human small intestine microsome was dialyzed against 10 mM phosphate buffer; tissue Tissue Transforming Technologies, Inc; host or cells: human small intestine microsome
T1 sequence (P55157 19-894): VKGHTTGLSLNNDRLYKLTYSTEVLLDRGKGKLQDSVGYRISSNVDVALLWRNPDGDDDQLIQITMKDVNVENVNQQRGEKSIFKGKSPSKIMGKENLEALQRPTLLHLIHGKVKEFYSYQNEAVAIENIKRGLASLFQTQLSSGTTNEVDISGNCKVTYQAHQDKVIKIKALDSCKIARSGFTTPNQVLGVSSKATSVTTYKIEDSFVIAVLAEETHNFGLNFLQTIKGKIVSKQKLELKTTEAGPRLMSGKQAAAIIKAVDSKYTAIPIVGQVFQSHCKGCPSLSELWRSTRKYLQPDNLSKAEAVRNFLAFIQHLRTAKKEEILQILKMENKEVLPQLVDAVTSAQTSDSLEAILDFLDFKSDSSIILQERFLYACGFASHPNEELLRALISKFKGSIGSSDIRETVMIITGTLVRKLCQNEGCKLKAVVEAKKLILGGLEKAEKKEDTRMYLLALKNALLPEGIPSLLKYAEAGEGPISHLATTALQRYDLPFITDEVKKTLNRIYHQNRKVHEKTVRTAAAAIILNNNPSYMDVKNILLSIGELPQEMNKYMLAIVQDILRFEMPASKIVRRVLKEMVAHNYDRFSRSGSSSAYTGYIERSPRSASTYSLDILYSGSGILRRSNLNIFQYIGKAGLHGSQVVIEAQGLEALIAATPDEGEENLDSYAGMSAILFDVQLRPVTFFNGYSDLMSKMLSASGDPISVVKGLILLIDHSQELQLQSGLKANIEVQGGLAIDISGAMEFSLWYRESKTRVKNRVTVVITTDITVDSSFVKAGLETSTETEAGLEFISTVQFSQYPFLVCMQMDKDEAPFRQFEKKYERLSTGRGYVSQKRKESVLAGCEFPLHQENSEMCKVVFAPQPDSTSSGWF
T1 sequence (P07237 18-508 partner): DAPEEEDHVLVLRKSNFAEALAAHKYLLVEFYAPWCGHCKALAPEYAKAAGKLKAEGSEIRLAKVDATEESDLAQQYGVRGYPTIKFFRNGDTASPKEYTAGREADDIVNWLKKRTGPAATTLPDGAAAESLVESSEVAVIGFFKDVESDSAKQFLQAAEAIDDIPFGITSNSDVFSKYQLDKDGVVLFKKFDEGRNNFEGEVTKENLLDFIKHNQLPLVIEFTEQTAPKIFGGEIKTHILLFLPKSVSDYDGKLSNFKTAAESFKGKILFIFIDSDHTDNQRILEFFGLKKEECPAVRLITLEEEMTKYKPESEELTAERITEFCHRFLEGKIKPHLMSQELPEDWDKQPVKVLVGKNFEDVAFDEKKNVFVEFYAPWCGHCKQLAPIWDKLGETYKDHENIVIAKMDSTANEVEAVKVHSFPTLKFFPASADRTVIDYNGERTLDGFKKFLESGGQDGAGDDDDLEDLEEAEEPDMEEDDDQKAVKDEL
Description: Microsomal triglyceride transfer protein (MTP) from human small intestine microsome (manufactured by Tissue Transforming Technologies, Inc.) was purified in such a way described below. Human small intestine microsome was dialyzed against 10 mM phosphate buffer (300 mL, pH 6.8) twice for about 2 hours and once for further not less than 12 hours, at about 4° C. After dialysis, the mixture was centrifuged at 4° C. and 15,000×g for 5 minutes and then the supernatant was recovered. The previously recovered supernatant was purified by column chromatography on diethylaminoethyl (DEAE) Sepharose using FPLC (Fast Performance Liquid Chromatography) system, and the purified MTP was used for the test as described below.
Small unilamellar-vesicle (SUV) liposome (hereinafter described as donor, containing 0.25% (mol/mol) triolein and 5% (mol/mol) cardiolipin) constituted by triolein labeled with ^14C and non-labeled SUV liposome (hereinafter described as acceptor, containing […] triolein) were prepared in such a way described below.
Firstly, in order to prepare the donor, there were volatilized under a stream of nitrogen gas a phosphatidylcholine solution containing phosphatidylcholine labeled with ^3H, a cardiolipin solution, and a triolein solution containing triolein labeled with ^14C (each solution had been already dissolved in an appropriate organic solvent), or in order to prepare the acceptor, there were volatilized under nitrogen flow a phosphatidylcholine solution containing phosphatidylcholine labeled with ^3H and a cardiolipin solution (each solution had been already dissolved in an appropriate organic solvent). An appropriate amount of a reaction buffer (15 mM Tris-HCl buffer containing 1 mM EDTA.Na2, 40 mM NaCl, and 0.5% (w/v) bovine serum albumin, pH 7.4) was added thereto to be emulsified. The emulsions were treated with ultrasonication under ice-cooling and centrifuged at 4° C. and 159,000×g for 2 hours. Each of the resulting supernatant was used for donor or acceptor.
Each radioactivity in the acceptor and the donor was measured by liquid scintillation counter, and a mixed solution of the acceptor and the donor was prepared with a reaction buffer so as to be a donor-derived radioactivity of 16,000 dpm/400 μL and a acceptor-derived radioactivity of 4,000 dpm/[…]. 400 μL of the mixed solution of the donor and the acceptor, 45 μL of the reaction buffer, 50 μL of MTP (20 μg/mL), and 5 μL of a sample dissolved in DMSO (dimethyl sulfoxide) or 5 μL of DMSO was mixed (total amount: 500 μL). The mixture was incubated at 37° C. for 1.5 hours. After completion of the incubation, 1.25 mL of a suspension of DEAE cellulose (66.7% (v/v)) in 15 mM Tris-HCl buffer (pH 7.4) containing 1 mM EDTA.Na2 was added to the above solution. The mixture was centrifuged to separate the donor (adsorbed on the DEAE cellulose to precipitate) and the acceptor (the supernatant). The radioactivity in the acceptor was measured by liquid scintillation counter. The value obtained by subtracting the radioactivity in a blank group from the radioactivity in the acceptor of a DMSO group was determined as MTP-mediated TG transfer activity, and it was compared with the value obtained by subtracting the radioactivity in the blank group from the radioactivity in a sample group. Here, the blank was prepared by adding 10 mM phosphate buffer (pH 6.8) containing 250 mM NaCl in place of MTP. Inhibition rate (%) was calculated from values obtained according to the following equation. Inhibition rate(%)=(1 minus((radioactivity of sample group minus radioactivity of blank group)/(radioactivity of DMSO group minus radioactivity of blank group)))×100.
50% Inhibition rate (IC50) was determined on the basis of the above equation.

| IC50 | Structure (SMILES) |
| --- | --- |
| < 10 nM | CN(C)C(=O)c1cc(CCCC(=O)Oc2ccc(C(=O)OCc3ccccn3)cc2)ccc1NC(=O)c1ccccc1-c1ccc(C(F)(F)F)cc1 [Compound 1-82, 4-[4-(3-dimethylcarbamoyl-4-{(4′-trifluoromethylbiphenyl-2-carbonyl)amino}phenyl)butyryloxy]benzoic acid pyridin-2-ylmethyl ester] |
| < 10 nM | CC(C)OCCOC(=O)c1ccc(OC(=O)CCCc2ccc(NC(=O)c3ccccc3-c3ccc(C(F)(F)F)cc3)c(C(=O)N(C)C)c2)cc1 [Compound 1-76, 4-[4-(3-dimethylcarbamoyl-4-{(4′-trifluoromethylbiphenyl-2-carbonyl)amino}phenyl)butyryloxy]benzoic acid 2-isopropoxyethyl ester] |
| < 10 nM | CCOC(=O)c1cc(Cl)c(OC(=O)CCCc2ccc(NC(=O)c3ccc(C)nc3-c3ccc(C(F)(F)F)cc3)c(C(=O)N(C)C)c2)c(OC)c1 [Compound 1-48, 3-chloro-4-[4-(3-dimethylcarbamoyl-4-{[6-methyl-2-(4-trifluoromethylphenyl)pyridine-3-carbonyl]amino}phenyl)butyryloxy]-5-methoxybenzoic acid ethyl ester] |
| < 10 nM | CN(C)C(=O)c1cc(CCCC(=O)Oc2ccc(C(=O)OCc3cccc(Cl)c3)cc2)ccc1NC(=O)c1ccccc1-c1ccc(C(F)(F)F)cc1 [Compound 1-87, 4-[4-(3-dimethylcarbamoyl-4-{(4′-trifluoromethylbiphenyl-2-carbonyl)amino}phenyl)butyryloxy]benzoic acid 3-chlorobenzyl ester] |
| 10 to 100 nM | COC(=O)c1ccc(OC(=O)CCCc2ccc(NC(=O)c3ccc(C)nc3-c3ccc(C(F)(F)F)cc3)c(C(=O)N(C)C)c2)c(C)c1 [Compound 1-69, 4-[4-(3-dimethylcarbamoyl-4-{[6-methyl-2-(4-trifluoromethylphenyl)pyridine-3-carbonyl]amino}phenyl)butyryloxy]-3-methylbenzoic acid methyl ester] |
| < 10 nM | CCOC(=O)c1cc(OC)c(OC(=O)CCCc2ccc(NC(=O)c3ccc(C)nc3-c3ccc(C(F)(F)F)cc3)c(C(=O)N(C)C)c2)c(C(=O)OC)c1 [Compound 1-54, 4-[4-(3-dimethylcarbamoyl-4-{[6-methyl-2-(4-trifluoromethylphenyl)pyridine-3-carbonyl]amino}phenyl)butyryloxy]-5-methoxyisophthalic acid 1-ethyl ester 3-methyl ester] |
| 10 to 100 nM | COC(=O)c1ccc(OC(=O)C2CCN(c3ccc(NC(=O)c4ccccc4-c4ccc(C(F)(F)F)cc4)c(C(=O)N(C)C)c3)CC2)cc1 [Compound 3-1, 1-{3-dimethylcarbamoyl-4-[(4′-trifluoromethylbiphenyl-2-carbonyl)amino]phenyl}piperidine-4-carboxylic acid 4-methoxycarbonylphenyl ester] |
| < 10 nM | CCOC(=O)c1cc(OC)c(OC(=O)CCCc2ccc(NC(=O)c3ccc(C)nc3-c3ccc(C(F)(F)F)cc3)c(C(=O)N(C)C)c2)c(OC)c1 [Compound 1-43, 4-[4-(3-dimethylcarbamoyl-4-{[6-methyl-2-(4-trifluoromethylphenyl)pyridine-3-carbonyl]amino}phenyl)butyryloxy]-3,5-dimethoxybenzoic acid ethyl ester] |
| 100 to 1000 nM | CN(C)C(=O)c1cc(CCCC(=O)Oc2ccc(C(=O)O)cc2)ccc1NC(=O)c1ccccc1-c1ccc(C(F)(F)F)cc1 [Compound 1-25, 4-(4-{3-dimethylcarbamoyl-4-[(4′-trifluoromethylbiphenyl-2-carbonyl)amino]phenyl}butyryloxy) benzoic acid] |
| < 10 nM | CCOC(=O)c1cc(C)c(OC(=O)CCCc2ccc(NC(=O)c3ccc(C)nc3-c3ccc(C(F)(F)F)cc3)c(C(=O)N(C)C)c2)c(C(=O)OC)c1 [Compound 1-52, 4-[4-(3-dimethylcarbamoyl-4-{[6-methyl-2-(4-trifluoromethylphenyl)pyridine-3-carbonyl]amino}phenyl)butyryloxy]-5-methylisophthalic acid 1-ethyl ester 3-methyl ester] |
| < 10 nM | COC(=O)c1cc(C)c(OC(=O)CCCc2ccc(NC(=O)c3ccccc3-c3ccc(C(F)(F)F)cc3)c(C(=O)N(C)C)c2)c(C)c1 [Compound 1-64, 4-[4-(3-dimethylcarbamoyl-4-{(4′-trifluoromethylbiphenyl-2-carbonyl)amino}phenyl)butyryloxy]-3,5-dimethylbenzoic acid methyl ester] |
| < 10 nM | COC(=O)c1ccc(OC(=O)CCCc2ccc(NC(=O)c3ccccc3-c3ccc(C(F)(F)F)cc3)c(C(=O)N(C)C)c2)cc1C [Compound 1-14, 4-(4-{3-dimethylcarbamoyl-4-[(4′-trifluoromethylbiphenyl-2-carbonyl)amino]phenyl}butyryloxy)-2-methyl benzoic acid methyl ester] |
| 10 to 100 nM | CC(=O)c1ccc(OC(=O)CCCc2ccc(NC(=O)c3ccccc3-c3ccc(C(F)(F)F)cc3)c(C(=O)N(C)C)c2)cc1 [Compound 1-22, 4-{3-dimethylcarbamoyl-4-[(4′-trifluoromethylbiphenyl-2-carbonyl)amino]phenyl}butyric acid 4-acetylphenyl ester] |
| < 10 nM | CCOC(=O)c1ccc(OC(=O)CCCc2ccc(NC(=O)c3ccccc3-c3ccc(C(F)(F)F)cc3)c(C(=O)N(C)C)c2)cc1 [Compound 1-6, 4-(4-{3-dimethylcarbamoyl-4-[(4′-trifluoromethylbiphenyl-2-carbonyl)amino]phenyl}butyryloxy)benzoic acid ethyl ester] |
| < 10 nM | CN(C)C(=O)c1cc(CCCC(=O)Oc2ccc(C(=O)OCc3ccc(Cl)cc3)cc2)ccc1NC(=O)c1ccccc1-c1ccc(C(F)(F)F)cc1 [Compound 1-79, 4-[4-(3-dimethylcarbamoyl-4-{(4′-trifluoromethylbiphenyl-2-carbonyl)amino}phenyl)butyryloxy]benzoic acid 4-chlorobenzyl ester] |
| < 10 nM | Cc1ccc(C(=O)Nc2ccc(CCCC(=O)Oc3ccc(C(=O)OCc4cccnc4)cc3)cc2C(=O)N(C)C)c(-c2ccc(C(F)(F)F)cc2)n1 [Compound 1-94, 4-[4-(3-dimethylcarbamoyl-4-{[6-methyl-2-(4-trifluoromethylphenyl)pyridine-3-carbonyl]amino}phenyl)butyryloxy]benzoic acid pyridin-3-ylmethyl ester] |
| < 10 nM | COc1cc(C(=O)OC(C)C)cc(Cl)c1OC(=O)CCCc1ccc(NC(=O)c2ccc(C)nc2-c2ccc(C(F)(F)F)cc2)c(C(=O)N(C)C)c1 [Compound 1-37, 3-chloro-4-[4-(3-dimethylcarbamoyl-4-{[6-methyl-2-(4-trifluoromethylphenyl)pyridine-3-carbonyl]amino}phenyl)butyryloxy]-5-methoxybenzoic acid isopropyl ester] |
| 100 to 1000 nM | CN(C)C(=O)c1cc(CC(=O)Oc2ccc(F)cc2)ccc1NC(=O)c1ccccc1-c1ccc(C(F)(F)F)cc1 [Compound 1-4, {3-dimethylcarbamoyl-4-[(4′-trifluoromethylbiphenyl-2-carbonyl)amino]phenyl}acetic acid 4-fluorophenyl ester] |
| < 10 nM | COC(=O)c1ccc(OC(=O)CCCc2ccc(NC(=O)c3ccccc3-c3ccc(C(=O)OC)cc3)c(C(=O)N(C)C)c2)cc1 [Compound 4-3, 2′-{2-dimethylcarbamoyl-4-[3-(4-methoxycarbonylphenoxycarbonyl)propyl]phenyl-carbamoyl}biphenyl-4-carboxylic acid methyl ester] |

| Structure (SMILES) | IC50 |
| --- | --- |
| Cc1ccc(C(=O)Nc2ccc(CCCC(=O)Oc3ccc(C(=O)OC(C)C)cc3)cc2C(=O)N(C)C)c(-c2ccc(C(F)(F)F)cc2)n1 [Compound 1-63, 4-[4-(3-dimethylcarbamoyl-4-{[6-methyl-2-(4-trifluoromethylphenyl)pyridine-3-carbonyl]amino}phenyl)butyryloxy]benzoic acid isopropyl ester sulfate] | < 10 nM |

Source: patent publication US8101774B2, “Ester derivatives and medicinal use thereof” (Japan Tobacco Inc., priority 2004, dated 2012)
